In patent US11596716B2, “Compounds and matrices for use in bone growth and repair” (Human BioMolecular Research Institute, priority 2013, dated 2023):
Where “and” joins values, the source holds several entries; their conditions need not be identical. Identical values can stand only once.

Columns and labels:
[1] = system: hMSCs; assay: qPCR of target gene mRNA expression in hMSCs; format: cell-based, human
Description: qPCR detection of osteogenic markers: Cells were cultured with compound in the presence or absence of matrix as described above, but using 96-well plate format. Total RNA was extracted from cells (as above) using Trizol. cDNA was made using 750 ng of total RNA with Bio-Rad iscript kit and was diluted 20-fold before being used for qPCR. qPCR was conducted under the following conditions: 95° C., 2 min; 95° C., 10 s and 60° C., 45 s for 40 cycles; 60° C. for 71 cycles for melt curve. qPCR results were analyzed by the ΔΔCt method. 18s rRNA was used as an internal standard. This protocol was applied to hMSC and E15 cells.
Runx2 and BMP-2 are osteogenic markers; Axin2, Wnt3a, and Sox 9 are Wnt-inducible gene markers.
The assay for mRNA expression followed the same procedure with hMSCs as described for C2C12 cells (Example 7).

[2] = system: nude, immunodeficient Bg-Nu-XID female mice; assay: Intramuscular osteoinduction: implants in biceps femoris of immunodeficient mice, histology after 8 weeks; format: in vivo
Description: Mice were divided into groups according to the experimental design: i) uninduced hMSCs that were treated with vehicle alone (i.e., 0.1% DMSO, final concentration) for 8 days then combined with TCP ceramic matrix, and ii) induced hMSCs that were treated with 3 (500 nM) in the presence of TCP ceramic matrix (5 mg/mL) for 8 days, and iii) TCP ceramic matrix (i.e. no cells) mock cultured for 8 days. The TCP ceramic matrix used was […] granules. […] MEM medium was added to existing PBS (pH 6.5) cell incubations to effect a 500 nM final concentration.
Isolation of Compound-Induced hMSCs and their Cryopreservation (FIG. 5, Steps 4-5). At the end of an 8-day cell culture period, the cells were washed three times with 1 ml PBS (50 mM, pH 7.4), and removed from the 6-well plate by trypsinization. For induced cells, the TCP granules that remained on the plate were retained. After three washes with PBS (50 mM, pH 7.4), cells were centrifuged at 1200× g for 3 min. The cell pellet was recombined with TCP ceramic taken from cell culture and the mixture was suspended in 1 mL freezing medium (MEM essential containing 20% FBS and 5% DMSO). Before cryopreservation of the cell-TCP mixture in liquid nitrogen, a 10 μl aliquot of each sample was taken and used to count the cells, or to confirm ALP functional activity and mRNA biomarker expression (i.e., Osteocalcin, Collagen I) in advance of implantation.
Preparation of Implants for Surgery (FIG. 5, Steps i and ii). On the day of surgery, implants comprised of either i) TCP ceramic matrix, ii) hMSCs (0.5 million) and 5 mg TCP ceramic matrix, or iii) compound-induced hMSCs (0.5 million) and 5 mg TCP ceramic matrix were prepared for transplantation. Frozen cell/ceramic suspensions were thawed and washed three times with PBS (50 mM, pH 7.4). All implants were combined with a bioadhesive just prior to implantation in mice. […]
Surgical Implantation of Compositions of the Invention (FIG. 5, Step iii). […] Mice were monitored throughout surgery and thereafter for maintenance of the surgical plane of anesthesia. […]

[3] = compound 500 nM, matrix 5 mg/mL, 3 days
[4] = implants of hMSCs induced 8 days with compound (500 nM) and TCP ceramic matrix, intramuscular, mice, 8 weeks

For CC(C)[C@H](N)C(=O)Oc1ccc(C=CC(=O)C=C(O)C=Cc2ccc(OC(=O)[C@@H](N)C(C)C)cc2)cc1 [Compound 3, (2S,2′S)—O,O′-(3-hydroxy-5-oxohepta-1,3,6-triene-1,7-diyl)bis(4,1-phenylene) bis(2-amino-3-methylbutanoate)], the “Collagen 1 mRNA Fold-Change +/− SD, −matrix” value ([1]; 500 nM, 8 days) was 1.5 fold and 1.5 ± 0.2 fold, the “Osteocalcin mRNA Fold-Change +/− SD, −matrix” value ([1]; 500 nM, 8 days) was 0.5 ± 0.1 fold and the “VDR mRNA Fold-Change +/− SD, −matrix” value ([1]; 500 nM, 8 days) was 5.0 ± 0.5 fold. For the same compound, the “decrease of Sox9 expression” value ([1]; 500 nM, matrix 5 mg/mL, 3 days) was 40%, the “decrease of Wnt repressor gene Axin2 expression” value ([1]; 500 nM, matrix 5 mg/mL, 3 days) was 80% and the “ALP mRNA Fold-Change +/− SD, +matrix” value ([1]; 500 nM, matrix 5 mg/mL, 8 days) was 55 fold and 55.0 ± 5.0 fold. For the same compound, the “Collagen 1 mRNA Fold-Change +/− SD, +matrix” value ([1]; 500 nM, matrix 5 mg/mL, 8 days) was 1.8 ± 0.2 fold, the “Osteocalcin mRNA Fold-Change +/− SD, +matrix” value ([1]; 500 nM, matrix 5 mg/mL, 8 days) was 5.2 ± 0.5 fold and the “VDR mRNA Fold-Change +/− SD, +matrix” value ([1]; 500 nM, matrix 5 mg/mL, 8 days) was 45 fold and 45.0 ± 5.0 fold. The “BMP-2 mRNA fold-changes +/− SD, −matrix” value ([1]; compound 500 nM, 3 days) was 2.6 ± 0.2 fold, the “Runx2 mRNA fold-changes +/− SD, −matrix” value ([1]; compound 500 nM, 3 days) was 101.3 ± 10.0 fold and the “Sox9 mRNA fold-changes +/− SD, −matrix” value ([1]; compound 500 nM, 3 days) was 0.1 ± 0.01 fold. For the same compound, the “Wnt3a mRNA fold-changes +/− SD, −matrix” value ([1]; compound 500 nM, 3 days) was 1 ± 0.1 fold, the “Wnt5a mRNA fold-changes +/− SD, −matrix” value ([1]; compound 500 nM, 3 days) was 1 ± 0.1 fold and the “Axin2 mRNA fold-changes +/− SD, +matrix” value [1, 3] was 0.2 ± 0.02 fold. The “BMP-2 mRNA fold-changes +/− SD, +matrix” value [1, 3] was 7.5 fold and 7.5 ± 0.7 fold, the “Runx2 mRNA fold-changes +/− SD, +matrix” value [1, 3] was 8.2 fold and 8.2 ± 0.8 fold and the “Sox9 mRNA fold-changes +/− SD, +matrix” value [1, 3] was 0.6 ± 0.1 fold. For the same compound, the “Wnt3a mRNA fold-changes +/− SD, +matrix” value [1, 3] was 82.4 fold and 82.4 ± 8.0 fold, the “Wnt5a mRNA fold-changes +/− SD, +matrix” value [1, 3] was 6.3 fold and 6.3 ± 0.6 fold and the “osteoid score (0-4), median and 75th percentile, versus non-induced hMSCs on TCP matrix or TCP matrix alone” value ([2]; blinded observers, H&E sections, 8 weeks post-implantation) was “significantly (p<0.005) higher”. The “osteoid in the ROI relative to implants comprised of TCP alone (densitometry)” value [2, 4] was 2.1 fold and the “osteoid in the ROI relative to implants of non-induced hMSCs and TCP ceramic matrix (densitometry)” value [2, 4] was 1.3 fold.
